Assay results as given in patent US20190134005A1 (BioMarin Pharmaceutical Inc., priority 2016, published 2019).

molecular target: T1, human CGT (Homo sapiens, UniProt Q16880); assay: Assay 1: CGT Enzymatic Assay (RapidFire/MS/MS, 0.01% Tween 80); assay type: biochemical; conditions: Table 1, Compounds of Formula (I) and Formula (II); CGT enzymatic assay, C6-NBD-dihydro-galactosylceramide readout; read-out: IC50
T1 sequence (Q16880 21-541): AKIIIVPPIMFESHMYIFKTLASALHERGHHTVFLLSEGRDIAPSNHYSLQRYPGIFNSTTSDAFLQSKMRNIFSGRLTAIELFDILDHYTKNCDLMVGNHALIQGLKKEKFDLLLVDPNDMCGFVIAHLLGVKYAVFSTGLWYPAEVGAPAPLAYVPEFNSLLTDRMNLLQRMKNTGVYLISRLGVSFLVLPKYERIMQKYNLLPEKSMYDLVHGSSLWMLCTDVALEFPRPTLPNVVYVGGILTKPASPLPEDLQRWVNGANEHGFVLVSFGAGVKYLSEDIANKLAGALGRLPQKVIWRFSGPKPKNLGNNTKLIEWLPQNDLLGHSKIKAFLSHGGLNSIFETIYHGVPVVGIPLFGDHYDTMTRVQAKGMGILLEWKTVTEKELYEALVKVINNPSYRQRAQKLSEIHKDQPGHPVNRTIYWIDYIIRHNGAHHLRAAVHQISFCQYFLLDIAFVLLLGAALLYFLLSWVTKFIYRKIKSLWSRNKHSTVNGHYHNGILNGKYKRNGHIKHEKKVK

Row | IC50 [nM] | Structure (SMILES)
1 | < 1000 | Cc1ccc(N2C(=O)N(c3ccc(Cl)cc3)C(O)(c3cccc(OC(F)(F)F)c3)C23CCC3)cc1 (stereo not shown) [Example 315, 7-(4-chlorophenyl)-8-hydroxy-5-(p-tolyl)-8-(3-(trifluoromethoxy)phenyl)-5,7-diazaspiro[3.4]octan-6-one]
2 | 1000 to 10000 | N#Cc1cccc(C2(O)N(c3ccc(Cl)cc3)C(=O)N(c3ccc(Cl)cc3)C23CNC3)c1 (stereo not shown) [Compound 300, 3-(5,7-bis(4-chlorophenyl)-8-hydroxy-6-oxo-2,5,7-triazaspiro[3.4]octan-8-yl)benzonitrile 2,2,2-trifluoroacetate]
3 | < 1000 | Cc1ccc(N2C(=O)N(c3ccc(C)cc3)C(O)(c3cccc(OC(F)(F)F)c3)C23CCCC3)cc1 (stereo not shown) [Example 327, 4-hydroxy-1,3-di-p-tolyl-4-(3-(trifluoromethoxy)phenyl)-1,3-diazaspiro[4.4]nonan-2-one]
4 | < 1000 | CC(F)(F)c1cccc(C2(O)N(c3ccc(Cl)cc3)C(=O)N(c3ccc(Cl)cc3)C23COC3)c1 (stereo not shown) [Compound 271, 5,7-bis(4-chlorophenyl)-8-(3-(1,1-difluoroethyl)phenyl)-8-hydroxy-2-oxa-5,7-diazaspiro[3.4]octan-6-one]

same assay, conditions: Table 1, Compounds of Formula (I) and Formula (II); CGT enzymatic assay; read-out: IC50

Row | IC50 [nM] | Structure (SMILES)
5 | > 50000 | O=C1N(c2ccc(Br)cc2)C(=O)C(O)(c2ccc(-c3ccc(F)cc3)cc2)N1c1ccc(Br)cc1 (stereo not shown) [Example 178, 1,3-bis(4-bromophenyl)-5-(4′-fluoro-[1,1′-biphenyl]-4-yl)-5-hydroxyimidazolidine-2,4-dione]
6 | < 1000 | CCC[C@H]1N(c2ccc(Br)cc2)C(=O)N(c2ccc(Br)cc2)C1(O)c1cccc(C(F)(F)F)c1 (stereo partly drawn) [Compound 100-2, (5R)-1,3-bis(4-bromophenyl)-4-hydroxy-5-propyl-4-(3-(trifluoromethyl)phenyl)imidazolidin-2-one]
7 | < 1000 | CCC[C@@H]1N(c2ccc(Cl)cc2)C(=O)N(c2ccc(Cl)cc2)C1(O)c1cccc(OC(F)(F)F)c1 (stereo partly drawn) [Compound 91-1, (5S)-1,3-bis(4-chlorophenyl)-4-hydroxy-5-propyl-4-(3-(trifluoromethoxy)phenyl)imidazolidin-2-one]
8 | < 1000 | N#Cc1cccc(C2(O)[C@@H](C3CC3)N(c3ccc(Cl)cc3)C(=O)N2c2ccc(Cl)cc2)c1 (stereo partly drawn) [Example 187-2, 3-((5R)-1,3-bis(4-chlorophenyl)-5-cyclopropyl-4-hydroxy-2-oxoimidazolidin-4-yl)benzonitrile]
9 | 1000 to 10000 | O=C1N(c2ccc(Br)cc2)CC(O)(c2cccs2)N1c1ccc(Br)cc1 (stereo not shown) [Example 7, 1,3-bis(4-bromophenyl)-4-hydroxy-4-(thiophen-2-yl)imidazolidin-2-one]
10 | < 1000 | Cc1c(-c2cccc(C#N)c2)n(-c2ccc(Cl)cc2)c(=O)n1-c1ccc(Cl)cc1 [Example 3]
11 | < 1000 | CC[C@@H]1N(c2ccc(Cl)cc2)C(=O)N(c2ccc(Cl)cc2)C1(O)c1cccc(Cl)c1 (stereo partly drawn) [Compound 81-1, (5S)-4-(3-chlorophenyl)-1,3-bis(4-chlorophenyl)-5-ethyl-4-hydroxyimidazolidin-2-one]
12 | < 1000 | CCCCC1N(c2ccc(Cl)cc2)C(=O)N(c2ccc(Cl)cc2)C1(O)c1cccc(C#N)c1 (stereo not shown) [Compound 116, 3-(5-butyl-1,3-bis(4-chlorophenyl)-4-hydroxy-2-oxoimidazolidin-4-yl)benzonitrile]
13 | < 1000 | Cc1cc(C)cc(C2(O)[C@H](C)N(c3ccc(Br)cc3)C(=O)N2c2ccc(Br)cc2)c1 (stereo partly shown) [Example 42-1]
14 | < 1000 | CCC1N(c2ccc(Cl)cc2)C(=O)N(c2ccc(Cl)cc2)C1(O)c1cccc(OC(F)(F)F)c1 (stereo in doubt) [Compound 82-2, (5R)-1,3-bis(4-chlorophenyl)-5-ethyl-4-hydroxy-4-(3-(trifluoromethoxy)phenyl)imidazolidin-2-one]
15 | 1000 to 10000 | Cc1cc(C)cc(C2(O)[C@@H](C)N(c3ccc(Br)cc3)C(=O)N2c2ccc(Br)cc2)c1 (stereo partly shown) [Example 42-2]
16 | 1000 to 10000 | O=C1N(c2ccc(Cl)cc2)CC(O)(c2cccc(Br)c2)N1c1ccc(Cl)cc1 (stereo not shown) [Example 55, 4-(3-bromophenyl)-1,3-bis(4-chlorophenyl)-4-hydroxyimidazolidin-2-one]
17 | < 1000 | CCC[C@@H]1N(c2ccc(Cl)cc2)C(=O)N(c2ccc(Cl)cc2)C1(O)c1cccc(C)c1 (stereo partly drawn) [Compound 90-1, (5S)-1,3-bis(4-chlorophenyl)-4-hydroxy-5-propyl-4-(m-tolyl)imidazolidin-2-one]
18 | < 1000 | O=C1N(c2ccc(Br)cc2)[C@H](C2CC2)C(O)(c2ccccc2)N1c1ccc(Br)cc1 (stereo partly drawn) [Compound 115-2, (5R)-1,3-bis(4-bromophenyl)-5-cyclopropyl-4-hydroxy-4-phenylimidazolidin-2-one]
19 | 10000 to 50000 | O=C1N(c2ccc(Br)cc2)CC(O)(c2ccccc2)N1c1ccccc1 (stereo not shown) [Example 28, 1-(4-bromophenyl)-4-hydroxy-3,4-diphenylimidazolidin-2-one]
20 | 1000 to 10000 | O=C1N(c2ccc(Br)cc2)CC(O)(c2cccc(Cl)c2)N1c1ccc(Br)cc1 (stereo not shown) [Example 35, 1,3-bis(4-bromophenyl)-4-(3-chlorophenyl)-4-hydroxyimidazolidin-2-one]
21 | 1000 to 10000 | Cc1cccc(C2(O)[C@@H](C)N(c3ccc(Cl)cc3)C(=O)N2c2ccc(Cl)cc2)c1 (stereo partly shown) [Example 36-2]

Row | IC50 [nM] | Structure (SMILES)
22 | 10000 to 50000 | CCC1(O)C(=O)N(c2ccc(Br)cc2)C(=O)N1c1ccc(Br)cc1 (stereo not shown) [Compound 143, 1,3-bis(4-bromophenyl)-5-ethyl-5-hydroxyimidazolidine-2,4-dione]
23 | 10000 to 50000 | C[C@@]1(c2ccccc2)N(c2ccc(Cl)cc2)C(=O)N(c2ccc(Cl)cc2)[C@]1(O)c1ccccc1 [Compound 121-1, (4S,5S)-1,3-bis(4-chlorophenyl)-4-hydroxy-5-methyl-4,5-diphenylimidazolidin-2-one]
24 | 10000 to 50000 | O=C1N(c2ccc(Br)cc2)C(=O)C(O)(c2cc3ccccc3s2)N1c1ccc(Br)cc1 (stereo not shown) [Example 214, 5-(benzo[b]thiophen-2-yl)-1,3-bis(4-bromophenyl)-5-hydroxyimidazolidine-2,4-dione]
25 | 1000 to 10000 | CC1N(c2ccc(Cl)cc2)C(=O)N(c2ccc(Cl)cc2)C1(O)c1cccc(C(C)(C)O)c1 (stereo not shown) [Compound 140, 1,3-bis(4-chlorophenyl)-4-hydroxy-4-(3-(2-hydroxypropan-2-yl)phenyl)-5-methylimidazolidin-2-one]
26 | 1000 to 10000 | Cc1csc(C2(O)[C@@H](C)N(c3ccc(Br)cc3)C(=O)N2c2ccc(Br)cc2)c1 (stereo partly drawn) [Compound 97-2, (5R)-1,3-bis(4-bromophenyl)-4-hydroxy-5-methyl-4-(4-methylthiophen-2-yl)imidazolidin-2-one]
27 | < 1000 | N#Cc1cccc(C2(O)N(c3ccc(Cl)cc3)C(=O)N(c3ccc(Cl)cc3)C23CC3)c1 (stereo not shown) [Example 226, 3-(4,6-bis(4-chlorophenyl)-7-hydroxy-5-oxo-4,6-diazaspiro[2.4]heptan-7-yl)benzonitrile]
28 | < 1000 | C[C@@H]1N(c2ccc(Br)cc2)C(=O)N(c2ccc(Br)cc2)C1(O)c1ccccc1 (stereo partly shown) [Example 13-1]
29 | > 50000 | O=C1N(c2ccc(Br)cc2)C(=O)C(O)(c2ccc(OCC3CCCC3)cc2)N1c1ccc(Br)cc1 (stereo not shown) [Example 183, 1,3-bis(4-bromophenyl)-5-(4-(cyclopentylmethoxy)phenyl)-5-hydroxyimidazolidine-2,4-dione]
30 | 50000 to 100000 | O=C1N(c2ccc(Br)cc2)C(=O)C(O)(c2ccc(OC3CC3)c(Cl)c2)N1c1ccc(Br)cc1 (stereo not shown) [Example 171, 1,3-bis(4-bromophenyl)-5-(3-chloro-4-cyclopropoxyphenyl)-5-hydroxyimidazolidine-2,4-dione]
31 | 1000 to 10000 | CC(C)c1cccc(C2(O)CN(c3ccc(Br)cc3)C(=O)N2c2ccc(Br)cc2)c1 (stereo not shown) [Compound 59, 1,3-bis(4-bromophenyl)-4-hydroxy-4-(3-isopropylphenyl)imidazolidin-2-one]
32 | < 1000 | CCC[C@@H]1N(c2ccc(Cl)cc2)C(=O)N(c2ccc(Cl)cc2)C1(O)c1cccc(CC)c1 (stereo partly drawn) [Compound 89-1, (5S)-1,3-bis(4-chlorophenyl)-4-(3-ethylphenyl)-4-hydroxy-5-propylimidazolidin-2-one]
33 | < 1000 | C[C@@H]1N(c2ccc(Cl)cc2)C(=O)N(c2ccc(Cl)cc2)C1(O)c1cccc(Cl)c1 (single isomer, unassigned) [Compound 62-1]
34 | 1000 to 10000 | O=C1N(c2ccc(Br)cc2)[C@H](c2ccccc2)C(O)(c2ccccc2)N1c1ccc(Br)cc1 (stereo partly drawn) [Compound 86-2, (5R)-1,3-bis(4-bromophenyl)-4-hydroxy-4,5-diphenylimidazolidin-2-one]
35 | < 1000 | COCc1c(-c2cccc(C(F)(F)F)c2)n(-c2ccc(Cl)cc2)c(=O)n1-c1ccc(Cl)cc1 [Example 41, 1,3-bis(4-chlorophenyl)-4-(methoxymethyl)-5-(3-(trifluoromethyl)phenyl)-1,3-dihydro-2H-imidazol-2-one]
36 | 1000 to 10000 | COc1cccc(C2(C)C(O)N(c3ccc(Br)cc3)C(=O)N2c2ccc(Br)cc2)c1 (stereo not shown) [Compound 126, 1,3-bis(4-bromophenyl)-5-hydroxy-4-(3-methoxyphenyl)-4-methylimidazolidin-2-one]
37 | > 50000 | O=C1N(c2ccc(Cl)cc2Cl)CC(O)(c2ccccc2)N1c1ccc(Cl)cc1Cl (stereo not shown) [Example 57, 1,3-bis(2,4-dichlorophenyl)-4-hydroxy-4-phenylimidazolidin-2-one]
